Key:
Assay type in all cases: physicochemical
[1] = Screening of antioxidant (tolterodine decomposition in H2O2 solution); details: 25° C., 100 rpm, 2.5 days
Experimental: (§1) [Analytical Method] • Test solution: tolterodine (−0.5 mg/mL) • Mobile phase: 45:55 mixture solution of ammonium dihydrogen phosphate and methanol, pH 7.0 • HPLC condition: detector 220 nm, column ODS3 C-18
Tolterodine free base (500 mg) was mixed with ethanol (50 mL) in a 100 mL flask and 0.3% H2O2 solution was added thereto to a final volume of 100 mL.
Antioxidant, weighed 10 mg each, was added into two glass bottles. One bottle contained tolterodine and the antioxidant, while the other bottle contained only the antioxidant, which was prepared to exclude the peaks resulting from the decomposition of the antioxidant by H2O2.
Tolterodine solution (2 mL) or a 1:1 mixture solution of 0.3% H2O2 aqueous solution and ethanol (2 mL) were added to the two glass bottles containing the antioxidant. The bottles were agitated at 100 rpm and 25° C. for 2.5 days.

[2] = Stress decomposition test of tolterodine under heat conditions
Experimental: as §1
Tolterodine free base (25-30 mg) was weighed and added into four glass bottles which were then capped with plugs. Three of the glass bottles were placed in an oven preheated at 120° C. At 10 minutes, 20 minutes and 30 minutes, each glass bottle was taken out from the oven and was allowed to cool enough at room temperature. After adding methanol (100 mL) to the four glass bottles followed by ultrasonic extraction for 10 minutes, decomposed substances of tolterodine were quantitated by HPLC as in Reference Example 1.

[3] = Stress decomposition test of tolterodine under acidic/basic/oxidizing conditions; details: for Total decomposed substances (peak area ratio of decomposed substances of tolterodine): 24 hours, HPLC
Experimental: Tolterodine free base (20 mg) was added respectively to three 100 mL flasks. Each of the above flasks was then added with 0.1 M HCl (5 mL), 0.1 M NaOH (5 mL) and 0.3% H2O2 solution (5 mL), respectively, added with methanol to a final volume of 20 mL and was subjected to ultrasonic extraction for 10 minutes.
Each sample was allowed to stand at room temperature for 24 hours and decomposed substances of tolterodine were quantitated by HPLC as follows.
as §1

[4] = tolterodine in ethanol/0.3% H2O2 with 10 mg of the named antioxidant

O=C(O)CC(O)C(=O)O (racemic) [d,l-Malic acid]
Total decomposed substances (peak area ratio of decomposed substances of tolterodine) [1, 4]: 1.39%

CC(=O)Oc1c(C)c(C)c2c(c1C)CC[C@@](C)(CCC[C@H](C)CCC[C@H](C)CCCC(C)C)O2 [(+)-α-Tocopherol acetate]
Total decomposed substances (peak area ratio of decomposed substances of tolterodine) [1, 4]: 23.56%

COc1ccc(O)c(C(C)(C)C)c1 [Butylated hydroxyanisole (BHA), Butylated hydroxyanisole]
Total decomposed substances (peak area ratio of decomposed substances of tolterodine) [1, 4]: 23.87%

Cc1cc(C(C)(C)C)c(O)c(C(C)(C)C)c1 [Butylated hydroxytoluene (BHT), Butylated hydroxytoluene]
Total decomposed substances (peak area ratio of decomposed substances of tolterodine) [1, 4]: 18.82%

O=C(O)CC(O)(CC(=O)O)C(=O)O [Citric acid]
Total decomposed substances (peak area ratio of decomposed substances of tolterodine) [1, 4]: 1.46%

CCOC(=O)c1cc(O)c(O)c(O)c1 [Ethyl gallate]
Total decomposed substances (peak area ratio of decomposed substances of tolterodine) [1, 4]: 13.00%

O=C([O-])CN(CCN(CC(=O)[O-])CC(=O)[O-])CC(=O)[O-].[Ca+2].[Na+].[Na+] [Ethylenediaminetetraacetic acid calcium disodium salt]
Total decomposed substances (peak area ratio of decomposed substances of tolterodine) [1, 4]: 29.69%

CCCCCCCCCCCCOC(=O)c1cc(O)c(O)c(O)c1 [Lauryl gallate]
Total decomposed substances (peak area ratio of decomposed substances of tolterodine) [1, 4]: 19.94%

O=S([O-])[O-].[Na+].[Na+] [Sodium sulfite]
Total decomposed substances (peak area ratio of decomposed substances of tolterodine) [1, 4]: 5.67%

O=S([O-])([O-])=S.[Na+].[Na+] [Sodium thiosulfate]
Total decomposed substances (peak area ratio of decomposed substances of tolterodine) [1, 4]: 1.94%

Cc1c(C)c2c(c(C)c1O)CCC(C)(CCCC(C)CCCC(C)CCCC(C)C)O2 (stereo not drawn) [d,l-α-Tocopherol]
Total decomposed substances (peak area ratio of decomposed substances of tolterodine) [1, 4]: 20.29%

CCCCCCCCCCCCCCCC(=O)OC[C@H](O)[C@H]1OC(=O)C(O)=C1O [l-Ascorbic acid 6-palmitate]
Total decomposed substances (peak area ratio of decomposed substances of tolterodine) [1, 4]: 1.94%

O=C1O[C@H]([C@@H](O)CO)C(O)=C1O [l-Ascorbic acid]
Total decomposed substances (peak area ratio of decomposed substances of tolterodine) [1, 4]: 1.21%

Cl.N[C@@H](CS)C(=O)O [l-Cysteine HCl]
Total decomposed substances (peak area ratio of decomposed substances of tolterodine) ([1]; tolterodine in ethanol/0.3% H2O2 with 10 mg of the named antioxidant, HCl): 1.70%

N[C@@H](CCC(=O)O)C(=O)O [l-Glutamic acid]
Total decomposed substances (peak area ratio of decomposed substances of tolterodine) [1, 4]: 1.52%

O=C(O)C(O)C(O)C(=O)O (stereo not drawn) [l-Tartaric acid]
Total decomposed substances (peak area ratio of decomposed substances of tolterodine) [1, 4]: 1.44%

CCCCCCCCOC(=O)c1cc(O)c(O)c(O)c1 [n-Octyl gallate]
Total decomposed substances (peak area ratio of decomposed substances of tolterodine) [1, 4]: 15.97%

Cc1ccc(O)c([C@H](CCN(C(C)C)C(C)C)c2ccccc2)c1 [tolterodine]
Total decomposed substances (peak area ratio of decomposed substances of tolterodine) ([1]; tolterodine in ethanol/0.3% H2O2, antioxidant: None): 26.08%
Total decomposed substances (peak area ratio of decomposed substances of tolterodine) ([2]; 120° C./0 min): 0.45%
Total decomposed substances (peak area ratio of decomposed substances of tolterodine) ([2]; 120° C./10 min): 0.59%
Total decomposed substances (peak area ratio of decomposed substances of tolterodine) ([2]; 120° C./20 min): 0.63%
Total decomposed substances (peak area ratio of decomposed substances of tolterodine) ([2]; 120° C./30 min): 0.78%
Total decomposed substances (peak area ratio of decomposed substances of tolterodine) ([3]; 0.1M HCl, room temperature): 0.59%
Total decomposed substances (peak area ratio of decomposed substances of tolterodine) ([3]; 0.1M NaOH, room temperature): 0.83%
Total decomposed substances (peak area ratio of decomposed substances of tolterodine) ([3]; 0.3% H2O2, room temperature): 4.74%
Production of decomposed substances of tolterodine under stress conditions (in words) ([3]; harsh oxidizing condition, compared with acid, base and heat): Much of decomposed substances of tolterodine were produced

— patent US9155715B2, “Transdermal composition comprising tolterodine” (SK Chemicals Co., Ltd., priority 2009, dated 2015)
